In patent publication EP0391644B1, “Aryl-substituted rhodanine derivatives” (ELI LILLY AND COMPANY, priority 1989, dated 1990):
Counter-ions that a name gives are not always drawn.

Tested on: adjuvant-induced arthritis
Assay: Developing Adjuvant-Induced Arthritis Test in Rats
Format: in vivo, male Lewis-Wistar rats
Details: Rattus norvegicus, po, 720 h, AUC of uninjected paw volumes, Days 16 through 30, read-out: % Inhibition of Uninjected Paw Volume Inflammation; for inhibition in vivo at 50 mg/kg: 50 mg/kg P.O. x 29

| Structure (SMILES) | inhibition in vivo at 50 mg/kg [%] | inhibition in vivo at 25 mg/kg (25 mg/kg P.O. x 29) [%] |
| --- | --- | --- |
| Cc1cc(C=C2SCNC2=O)cc(C(C)(C)C)c1O [Example 58, 5-{[3-(1,1-dimethylethyl)-4-hydroxy-5-methylphenyl]methylene}-4-thiazolidinone] | 16.9 | – |
| CCCNN1CSC(=Cc2cc(C(C)(C)C)c(O)c(C(C)(C)C)c2)C1=O [Example 51, 5-{[3,5-bis(1,1-dimethylethyl)-4-hydroxyphenyl]methylene}-3-(propylamino)-4-thiazolidinone] | – | 39 |
| Cc1cc(C=C2SC(=S)N(N(C)C)C2=O)cc(C(C)(C)C)c1O [Example 60, 5-{[3-(1,1-dimethylethyl)-4-hydroxy-5-methylphenyl]methylene}-3-dimethylamino-2-thioxo-4-thiazolidinone] | 40.6 | – |
| CCN(C)N1CSC(=Cc2cc(C(C)(C)C)c(O)c(C(C)(C)C)c2)C1=O [Example 40, 5-{[3,5-bis(1,1-dimethylethyl)-4-hydroxyphenyl]methylene}-3-(ethylmethylamino)-4-thiazolidinone] | 23 | – |
| CCCNCCN1CSC(=Cc2cc(C(C)(C)C)c(O)c(C(C)(C)C)c2)C1=O [Example 54, 5-{[3,5-bis(1,1-dimethylethyl)-4-hydroxyphenyl]methylene}-3-[2-(propylamino)ethyl]-4-thiazolidinone] | 37.6 | – |
| CC(C)(C)c1cc(C=C2SCN(CCN)C2=O)cc(C(C)(C)C)c1O [Example 27, 5-{[3,5-bis(1,1-dimethylethyl)-4-hydroxyphenyl]methylene}-3-(2-aminoethyl)-4-thiazolidinone] | 40 | – |
| CC(C)(C)c1cc(C=C2SCN(N3CCCCC3)C2=O)cc(C(C)(C)C)c1O [Example 44, 5-{[3,5-bis(1,1-dimethylethyl)-4-hydroxyphenyl]methylene}-3-(1-piperidinyl)-4-thiazolidinone] | 15 | – |
| CC(C)(C)c1cc(C=C2SCN(CCNCCO)C2=O)cc(C(C)(C)C)c1O [Example 30, 5-{[3,5-bis(1,1-dimethylethyl)-4-hydroxyphenyl]methylene}-3-[2-(2-hydroxyethylamino)ethyl]-4-thiazolidinone] | 44.1 | – |
| CN(C)CCNCCN1CSC(=Cc2cc(C(C)(C)C)c(O)c(C(C)(C)C)c2)C1=O [Example 32, 5-{[3,5-bis(1,1-dimethylethyl)-4-hydroxyphenyl]methylene}-3-{2-[[2-(dimethylamino)ethyl]amino]-ethyl}-4-thiazolidinone] | 48.6 | – |
| CC(C)(C)c1cc(C=C2SCN(Cc3nnn[nH]3)C2=O)cc(C(C)(C)C)c1O [Example 39, 5-{[3,5-bis(1,1-dimethylethyl)-4-hydroxyphenyl]methylene}-3-(1H-tetrazol-5-ylmethyl)-4-thiazolidinone] | 2 | – |
| CC(C)(C)c1cc(C=C2SCN(N)C2=O)cc(C(C)(C)C)c1O [Example 50, 3-amino-5-{[3,5-bis(1,1-dimethylethyl)-4-hydroxyphenyl]methylene}-4-thiazolidinone] | 62 | – |
| CCCCN(C)N1CSC(=Cc2cc(C(C)(C)C)c(O)c(C(C)(C)C)c2)C1=O [Example 41, 5-{[3,5-bis(1,1-dimethylethyl)-4-hydroxyphenyl]methylene}-3-(butylmethylamino)-4-thiazolidinone] | 27 | – |
| CN1CSC(=Cc2ccc(O)c(C(C)(C)C)c2)C1=O [Example 66, 5-{[3-(1,1-dimethylethyl)-4-hydroxyphenyl]-methylene}-3-methyl-4-thiazolidinone] | 26.1 | – |
| CC(C)(C)c1cc(C=C2SCN(CCNCc3ccccc3)C2=O)cc(C(C)(C)C)c1O [Example 33, 5-{[3,5-bis(1,1-dimethylethyl)-4-hydroxyphenyl]methylene}-3-{2-[(phenylmethyl)amino]ethyl}-4-thiazolidinone hydrochloride] | 30.1 | – |
| CC(=C1SCN(N(C)C)C1=O)c1cc(C(C)(C)C)c(O)c(C(C)(C)C)c1 [Example 46, 5-{1-[3,5-bis(1,1-dimethylethyl)-4-hydroxyphenyl]methylmethylene}-3-(dimethylamino)-4-thiazolidinone] | 9 | – |
